In US8426342B2, “Method for weed control in lawn” (priority 2008, dated 2013):

What was measured:
Taraxacum officinalis = assay: Greenhouse herbicidal effect in weed control ex. 6.2, 1- to 2-leaves stage; format: in vivo; details: 6 g a.i./ha
Source text: (§1) That means, when applying the combinations according to the invention, herbicidal effects are observed on a harmful plant species which exceed the formal total of the effects of the herbicides present when these are applied by themselves. Alternatively, it is observed in some cases that a lower application rate is required for the herbicide combination in order to achieve the same effect on a harmful plant species in comparison with the individual products.
(§2) When the data observed already exceed the formal total (=E^A) of the data in the experiments with individual applications, they likewise exceed the expected value according to Colby, which is calculated using the formula below and is likewise regarded as an indication of synergism (cf. S. R. Colby; in Weeds 15 (1967) pp. 20 to 22): E=A+B−(A·B/100)
(§3) In this formula: • A=action of active compound (A) in % at an application rate of a g of AS/ha; • B=action of active compound (B) in % at an application rate of b g of AS/ha; • E=expected value of the action of the combination (A)+(B) in % at the combined application rate a+b g of AS/ha.
(§4) The data observed in the experiments show, at suitably low dosages, an action of the combinations which exceeds the expected values according to Colby (=E^C).

Trifolium repens = assay: Effectivity testing against weed plants ex. 5.2, co-formulation/granules in tall fescue turf, early post for the weed, Abbott %; format: in vivo; details: 50 g a.i./ha
Source text: A co-formulation containing a mixture compounds no. […] Granules were applied with a shaker can.
Turf grass species: Festuca arundinacea, variety (tall fescue grass)
Weed species: Trifolium repens
Location: Sports turf, North Carolina, USA
Plot size: 1.4 m^2 and 3 replicates per treatment
Application timing: 27 Mar. 2007, spring application, early post for the weed
Effectivity was rated in percent (%) herbicidal effect compared with untreated control according to the method of Abbott mentioned above (see 5.1). 100% efficacy means full control; 0% efficacy means no control of the weed; all ratings above 80% are usually acceptable.

[1] = system: Cynodon dactylon (Bermuda grass); assay: Phytotoxicity of the turf ex. 5.1, % injury vs untreated; format: in vivo; details: 157 DAT
Source text: (§5) Each plot was divided by different pre-treatments 1 week before application of the trial treatments: • A) Pre-treatment with glyphosate-isopropylammonium allowing to evaluate in this section the pre-emergence effect against weeds. • B) No pre-treatment, present winter annual weeds are received a post-emergence application.
(§6) 2005, applied on dormant turf in winter
Additionally, phytotoxicity of the turf was rated as percent (%) injury compared with untreated control.

Stellaria media = assay: Effectivity testing against weed plants ex. 5.1, Abbott %; format: in vivo
Source text: as §5, §6
(§7) Effectivity was rated in percent (%) herbicidal effect compared with untreated control according to the method of Abbott according to the formula [(X−Y)/X]100 where X is the absolute level/scoring of the control plants, Y is the level/scoring of the treated plants. 100% efficacy means full control; 0% efficacy means no control of the weed; all ratings above 80% are usually acceptable.

Veronica arvensis = assay: as above; format: in vivo
Source text: as §5, §6, §7

Aphanes arvensis = assay: as above; format: in vivo; details: 151 DAT
Source text: as §5, §6, §7

Poa annua = assay: Effectivity testing against weed plants ex. 5.1, sprayable formulation on dormant Bermuda grass turf, Abbott %; format: in vivo
Source text: as §5, §6, §7

Dagitaria sanguinales = assay: Effectivity testing against weed plants ex. 5.1, Abbott %; format: in vivo, Digitaria sanguinales
Source text: as §5, §6, §7

Lamium amplexcaule = assay: as above; format: in vivo, Lamium amplexicaule
Source text: as §5, §6, §7

Capsella bursa pastoris = assay: Greenhouse herbicidal effect in weed control ex. 6.2, 2- to 3-leaves stage; format: in vivo; details: 6 g a.i./ha
Source text: as §1, §2, §3, §4

## Cc1ccc2c(c1)[C@H](Nc1nc(N)nc([C@@H](C)F)n1)[C@@H](C)C2 (stereo in doubt) [(A21)/(A22), indaziflam]
Taraxacum officinalis
  Herbicidal effect (%) 7 DAT on Taraxacum officinalis: 20%
Trifolium repens; 30 DAT
  Herbicidal effect (%) on Trifolium repens: 60%
Trifolium repens; 381 DAT
  Herbicidal effect (%) on Trifolium repens: 90%
[1]; 25 g a.i./ha, section with glyphosate pre-treatment (Table 20)
  Phytotoxicity (%) on Turf: 0%
[1]; 25 g a.i./ha, section without pre-treatment (Table 21)
  Phytotoxicity (%) on Turf: 0%
[1]; 50 g a.i./ha, section with glyphosate pre-treatment (Table 20)
  Phytotoxicity (%) on Turf: 0%
[1]; 50 g a.i./ha, section without pre-treatment (Table 21)
  Phytotoxicity (%) on Turf: 0%
[1]; 75 g a.i./ha, section with glyphosate pre-treatment (Table 20)
  Phytotoxicity (%) on Turf: 0%
[1]; 75 g a.i./ha, section without pre-treatment (Table 21)
  Phytotoxicity (%) on Turf: 0%
Stellaria media; 25 g a.i./ha, 124 DAT
  Herbicidal effect (%) on Stellaria media, Post-emergence application without pre-treatment: 100%
  Herbicidal effect (%) on Stellaria media, Pre-emergence application after pre-treatment: 75%
Stellaria media; 25 g a.i./ha, 151 DAT
  Herbicidal effect (%) on Stellaria media, Post-emergence application without pre-treatment: 100%
  Herbicidal effect (%) on Stellaria media, Pre-emergence application after pre-treatment: 71%
Stellaria media; 50 g a.i./ha, 124 DAT
  Herbicidal effect (%) on Stellaria media, Post-emergence application without pre-treatment: 100%
  Herbicidal effect (%) on Stellaria media, Pre-emergence application after pre-treatment: 100%
Stellaria media; 50 g a.i./ha, 151 DAT
  Herbicidal effect (%) on Stellaria media, Post-emergence application without pre-treatment: 100%
  Herbicidal effect (%) on Stellaria media, Pre-emergence application after pre-treatment: 100%
Stellaria media; 75 g a.i./ha, 124 DAT
  Herbicidal effect (%) on Stellaria media, Post-emergence application without pre-treatment: 100%
  Herbicidal effect (%) on Stellaria media, Pre-emergence application after pre-treatment: 100%
Stellaria media; 75 g a.i./ha, 151 DAT
  Herbicidal effect (%) on Stellaria media, Post-emergence application without pre-treatment: 100%
  Herbicidal effect (%) on Stellaria media, Pre-emergence application after pre-treatment: 100%
Veronica arvensis; 25 g a.i./ha, 123 DAT
  Herbicidal effect (%) on Veronica arvensis, Post-emergence application without pre-treatment: 100%
  Herbicidal effect (%) on Veronica arvensis, Pre-emergence application after pre-treatment: 81%
Veronica arvensis; 25 g a.i./ha, 157 DAT
  Herbicidal effect (%) on Veronica arvensis, Post-emergence application without pre-treatment: 94%
  Herbicidal effect (%) on Veronica arvensis, Pre-emergence application after pre-treatment: 100%
Veronica arvensis; 50 g a.i./ha, 123 DAT
  Herbicidal effect (%) on Veronica arvensis, Post-emergence application without pre-treatment: 75%
  Herbicidal effect (%) on Veronica arvensis, Pre-emergence application after pre-treatment: 100%
Veronica arvensis; 50 g a.i./ha, 157 DAT
  Herbicidal effect (%) on Veronica arvensis, Post-emergence application without pre-treatment: 100%
  Herbicidal effect (%) on Veronica arvensis, Pre-emergence application after pre-treatment: 100%
Veronica arvensis; 75 g a.i./ha, 123 DAT
  Herbicidal effect (%) on Veronica arvensis, Post-emergence application without pre-treatment: 100%
  Herbicidal effect (%) on Veronica arvensis, Pre-emergence application after pre-treatment: 100%
Veronica arvensis; 75 g a.i./ha, 157 DAT
  Herbicidal effect (%) on Veronica arvensis, Post-emergence application without pre-treatment: 100%
  Herbicidal effect (%) on Veronica arvensis, Pre-emergence application after pre-treatment: 100%
Aphanes arvensis; 25 g a.i./ha
  Herbicidal effect (%) on Aphanes arvensis, Post-emergence application without pre-treatment: 100%
  Herbicidal effect (%) on Aphanes arvensis, Pre-emergence application after pre-treatment: 50%
Aphanes arvensis; 50 g a.i./ha
  Herbicidal effect (%) on Aphanes arvensis, Post-emergence application without pre-treatment: 33%
  Herbicidal effect (%) on Aphanes arvensis, Pre-emergence application after pre-treatment: 100%
Aphanes arvensis; 75 g a.i./ha
  Herbicidal effect (%) on Aphanes arvensis, Post-emergence application without pre-treatment: 100%
  Herbicidal effect (%) on Aphanes arvensis, Pre-emergence application after pre-treatment: 100%
Poa annua; 25 g a.i./ha, 123 DAT
  Herbicidal effect (%) on Poa annua, Post-emergence application without pre-treatment: 27%
  Herbicidal effect (%) on Poa annua, Pre-emergence application after pre-treatment: 96%
Poa annua; 25 g a.i./ha, 157 DAT
  Herbicidal effect (%) on Poa annua, Post-emergence application without pre-treatment: 77%
  Herbicidal effect (%) on Poa annua, Pre-emergence application after pre-treatment: 92%
Poa annua; 25 g a.i./ha, 187 DAT
  Herbicidal effect (%) on Poa annua, Post-emergence application without pre-treatment: 98%
  Herbicidal effect (%) on Poa annua, Pre-emergence application after pre-treatment: 96%
Poa annua; 50 g a.i./ha, 123 DAT
  Herbicidal effect (%) on Poa annua, Post-emergence application without pre-treatment: 77%
  Herbicidal effect (%) on Poa annua, Pre-emergence application after pre-treatment: 98%
Poa annua; 50 g a.i./ha, 157 DAT
  Herbicidal effect (%) on Poa annua, Post-emergence application without pre-treatment: 95%
  Herbicidal effect (%) on Poa annua, Pre-emergence application after pre-treatment: 100%
Poa annua; 50 g a.i./ha, 187 DAT
  Herbicidal effect (%) on Poa annua, Post-emergence application without pre-treatment: 100%
  Herbicidal effect (%) on Poa annua, Pre-emergence application after pre-treatment: 100%
Poa annua; 75 g a.i./ha, 123 DAT
  Herbicidal effect (%) on Poa annua, Post-emergence application without pre-treatment: 98%
  Herbicidal effect (%) on Poa annua, Pre-emergence application after pre-treatment: 100%
Poa annua; 75 g a.i./ha, 157 DAT
  Herbicidal effect (%) on Poa annua, Post-emergence application without pre-treatment: 100%
  Herbicidal effect (%) on Poa annua, Pre-emergence application after pre-treatment: 100%
Poa annua; 75 g a.i./ha, 187 DAT
  Herbicidal effect (%) on Poa annua, Post-emergence application without pre-treatment: 100%
  Herbicidal effect (%) on Poa annua, Pre-emergence application after pre-treatment: 100%
Dagitaria sanguinales; 25 g a.i./ha, 187 DAT
  Herbicidal effect (%) on Dagitaria sanguinales, Pre-emergence application after pre-treatment: 100%
Dagitaria sanguinales; 25 g a.i./ha, 207 DAT
  Herbicidal effect (%) on Dagitaria sanguinales, Pre-emergence application after pre-treatment: 100%
Dagitaria sanguinales; 25 g a.i./ha, 234 DAT
  Herbicidal effect (%) on Dagitaria sanguinales, Pre-emergence application after pre-treatment: 97%
Dagitaria sanguinales; 25 g a.i./ha, 259 DAT
  Herbicidal effect (%) on Dagitaria sanguinales, Pre-emergence application after pre-treatment: 99%
Dagitaria sanguinales; 50 g a.i./ha, 187 DAT
  Herbicidal effect (%) on Dagitaria sanguinales, Pre-emergence application after pre-treatment: 100%
Dagitaria sanguinales; 50 g a.i./ha, 207 DAT
  Herbicidal effect (%) on Dagitaria sanguinales, Pre-emergence application after pre-treatment: 100%
Dagitaria sanguinales; 50 g a.i./ha, 234 DAT
  Herbicidal effect (%) on Dagitaria sanguinales, Pre-emergence application after pre-treatment: 100%
Dagitaria sanguinales; 50 g a.i./ha, 259 DAT
  Herbicidal effect (%) on Dagitaria sanguinales, Pre-emergence application after pre-treatment: 100%
Dagitaria sanguinales; 75 g a.i./ha, 187 DAT
  Herbicidal effect (%) on Dagitaria sanguinales, Pre-emergence application after pre-treatment: 100%
Dagitaria sanguinales; 75 g a.i./ha, 207 DAT
  Herbicidal effect (%) on Dagitaria sanguinales, Pre-emergence application after pre-treatment: 100%
Dagitaria sanguinales; 75 g a.i./ha, 234 DAT
  Herbicidal effect (%) on Dagitaria sanguinales, Pre-emergence application after pre-treatment: 100%
Dagitaria sanguinales; 75 g a.i./ha, 259 DAT
  Herbicidal effect (%) on Dagitaria sanguinales, Pre-emergence application after pre-treatment: 100%
Lamium amplexcaule; 25 g a.i./ha, 124 DAT
  Herbicidal effect (%) on Lamium amplexcaule, Post-emergence application without pre-treatment: 91%
  Herbicidal effect (%) on Lamium amplexcaule, Pre-emergence application after pre-treatment: 58%
Lamium amplexcaule; 25 g a.i./ha, 151 DAT
  Herbicidal effect (%) on Lamium amplexcaule, Post-emergence application without pre-treatment: 50%
  Herbicidal effect (%) on Lamium amplexcaule, Pre-emergence application after pre-treatment: 40%
Lamium amplexcaule; 50 g a.i./ha, 124 DAT
  Herbicidal effect (%) on Lamium amplexcaule, Post-emergence application without pre-treatment: 89%
  Herbicidal effect (%) on Lamium amplexcaule, Pre-emergence application after pre-treatment: 100%
Lamium amplexcaule; 50 g a.i./ha, 151 DAT
  Herbicidal effect (%) on Lamium amplexcaule, Post-emergence application without pre-treatment: 67%
  Herbicidal effect (%) on Lamium amplexcaule, Pre-emergence application after pre-treatment: 90%
Lamium amplexcaule; 75 g a.i./ha, 124 DAT
  Herbicidal effect (%) on Lamium amplexcaule, Post-emergence application without pre-treatment: 83%
  Herbicidal effect (%) on Lamium amplexcaule, Pre-emergence application after pre-treatment: 100%
Lamium amplexcaule; 75 g a.i./ha, 151 DAT
  Herbicidal effect (%) on Lamium amplexcaule, Post-emergence application without pre-treatment: 67%
  Herbicidal effect (%) on Lamium amplexcaule, Pre-emergence application after pre-treatment: 100%
Capsella bursa pastoris
  Herbicidal effect (%) 7 DAT on Capsella bursa pastoris: 0%
